ChEMBL document CHEMBL1147371, “Les Chimanines, Nouvelles Quinoleines Substituees en 2, Isolees d'Une Plante Bolivienne Antiparasitaire: Galipea longiflora” (1993)
In brackets after ≈: the same amount, converted by molar mass.

Tests used:
Trypanosoma cruzi = assay: Antitrypanosomal activity against Trypanosoma cruzi Tulahuen; format: functional
Leishmania braziliensis = assay: Antileishmanial activity against Leishmania braziliensis 2903; format: functional

| IC90 (Trypanosoma cruzi) | IC90 (Leishmania braziliensis) | Structure (SMILES) |
| --- | --- | --- |
| 100 µg/mL (≈ 487 µM) | 100 µg/mL (≈ 487 µM) | c1ccc(-c2ccc3ccccc3n2)cc1 [2-PHENYLQUINOLINE] |
| 100 µg/mL (≈ 436 µM) | 100 µg/mL (≈ 436 µM) | CCCCCc1cc(OC)c2ccccc2n1 |
| 100 µg/mL (≈ 386 µM) | 100 µg/mL (≈ 386 µM) | COc1ccc2c(OC)c3ccoc3nc2c1OC [SKIMMIANINE] |
| 50 µg/mL (≈ 270 µM) | 25 µg/mL (≈ 135 µM) | C[C@H]1O[C@@H]1c1ccc2ccccc2n1 (relative stereo) [CHIMANINE D] |
| – | 1 µg/mL (≈ 2.94 µM) | N=C(N)c1ccc(OCCCCCOc2ccc(C(=N)N)cc2)cc1 [PENTAMIDINE] |
| 50 µg/mL (≈ 192 µM) | – | O=C(Cn1ccnc1[N+](=O)[O-])NCc1ccccc1 [BENZNIDAZOLE] |
| 25 µg/mL (≈ 87 µM) | – | CC1CS(=O)(=O)CCN1/N=C/c1ccc([N+](=O)[O-])o1 (configuration not stated) [NIFURTIMOX] |
| 100 µg/mL (≈ 361 µM) | 100 µg/mL (≈ 361 µM) | c1ccc2nc(CCc3ccc4c(c3)OCO4)ccc2c1 |
| 50 µg/mL (≈ 292 µM) | 50 µg/mL (≈ 292 µM) | CCCc1ccc2ccccc2n1 |
| 100 µg/mL (≈ 497 µM) | 100 µg/mL (≈ 497 µM) | CCCc1cc(OC)c2ccccc2n1 [CHIMANINE A] |
| 100 µg/mL (≈ 325 µM) | 100 µg/mL (≈ 325 µM) | COc1cc(CCc2ccc3c(c2)OCO3)nc2ccccc12 [CUSPARINE] |
| 100 µg/mL (≈ 341 µM) | 100 µg/mL (≈ 341 µM) | COc1ccc(CCc2ccc3ccccc3n2)cc1OC |
| 25 µg/mL (≈ 148 µM) | 25 µg/mL (≈ 148 µM) | C/C=C/c1ccc2ccccc2n1 [CHIMANINE B] |
| 100 µg/mL (≈ 502 µM) | 100 µg/mL (≈ 502 µM) | CCCCCc1ccc2ccccc2n1 |
| 100 µg/mL (≈ 425 µM) | 50 µg/mL (≈ 213 µM) | COc1cc(-c2ccccc2)nc2ccccc12 |
